3 h FOB score data for 25 substances are collected here from the OligoGym collection.

HELM strings list units from the 5' end as sugar, base in round brackets, then linkage (d deoxyribose, r ribose, m 2'-O-methyl, p phosphodiester). Strings are as the collection lists them; they lack the last nucleoside at the 3' end of the tested compound. [moe] = 2'-O-(2-methoxyethyl) (MOE); [sp] = phosphorothioate linkage; [m5C] = 5-methylcytosine

The data set addresses SCN2A. Briefly: mouse, dose not given. To be noted: ASO.
Substance “RNA1{[moe](A)[sp].[moe]([m5C])p.[moe](G)p.[moe](A)p.[moe]([m5C])p.[moe](A)p.d(T)[sp].d(A)[sp].d(T)[sp].d(T)[sp].d(T)[sp].d(T)[sp].d(T)[sp].d([m5C])[sp].d(T)[sp].d(A)[sp].[moe]([m5C])p.[moe](A)[sp].[moe]([m5C])}$$$$ (last 3' nucleoside missing)” came in with a 3 h FOB score of 0 score 0-7. “RNA1{[moe]([m5C])[sp].[moe](G)p.[moe](T)p.[moe]([m5C])p.[moe](T)p.d([m5C])[sp].d(T)[sp].d(T)[sp].d(T)[sp].d([m5C])[sp].d(T)[sp].d(T)[sp].d(A)[sp].d(T)[sp].d(T)[sp].[moe](T)p.[moe]([m5C])p.[moe](T)[sp].[moe](G)}$$$$ (last 3' nucleoside missing)” had a 3 h FOB score of 1 score 0-7. With “RNA1{[moe]([m5C])[sp].[moe](A)p.[moe](T)p.[moe](A)p.d(T)[sp].d(T)[sp].d(T)[sp].d(T)[sp].d(T)[sp].d([m5C])[sp].d(T)[sp].d(A)[sp].d([m5C])[sp].d(A)[sp].[moe]([m5C])p.[moe](T)p.[moe](G)p.[moe]([m5C])[sp].[moe](T)}$$$$ (last 3' nucleoside missing)” the figure was 2 score 0-7; with “RNA1{[moe](G)[sp].[moe](T)p.[moe]([m5C])p.[moe](T)p.d([m5C])[sp].d(T)[sp].d(T)[sp].d(T)[sp].d([m5C])[sp].d(T)[sp].d(T)[sp].d(A)[sp].d(T)[sp].d(T)[sp].[moe](T)p.[moe]([m5C])p.[moe](T)p.[moe](G)[sp].[moe](T)}$$$$ (last 3' nucleoside missing)”, 0 score 0-7. Substance “RNA1{[moe]([m5C])[sp].[moe](T)p.[moe](G)p.[moe]([m5C])p.[moe](A)p.[moe](T)p.d(G)[sp].d(T)[sp].d(A)[sp].d(A)[sp].d([m5C])[sp].d([m5C])[sp].d(T)[sp].d(T)[sp].d(T)[sp].d(A)[sp].[moe](T)p.[moe](A)[sp].[moe]([m5C])}$$$$ (last 3' nucleoside missing)” displayed a 3 h FOB score of 0 score 0-7. In the case of “RNA1{[moe](T)[sp].[moe](G)p.[moe]([m5C])p.[moe](A)p.[moe](T)p.[moe](G)[sp].d(T)[sp].d(A)[sp].d(A)[sp].d([m5C])[sp].d([m5C])[sp].d(T)[sp].d(T)[sp].d(T)[sp].[moe](A)p.[moe](T)[sp].[moe](A)}$$$$ (last 3' nucleoside missing)”, the 3 h FOB score turned out to be 0 score 0-7. “RNA1{[moe]([m5C])[sp].[moe](A)p.[moe](T)p.[moe](G)p.[moe](T)[sp].d(A)[sp].d(A)[sp].d([m5C])[sp].d([m5C])[sp].d(T)[sp].d(T)[sp].d(T)[sp].d(A)[sp].[moe](T)p.[moe](A)p.[moe]([m5C])[sp].[moe](A)}$$$$ (last 3' nucleoside missing)” yielded a 3 h FOB score of 0 score 0-7. In the case of “RNA1{[moe](T)[sp].[moe](G)p.[moe](G)p.[moe](G)p.[moe](T)p.d([m5C])[sp].d(T)[sp].d([m5C])[sp].d(T)[sp].d(T)[sp].d(A)[sp].d(G)[sp].d([m5C])[sp].d(T)[sp].d(T)[sp].[moe](T)p.[moe]([m5C])p.[moe](T)[sp].[moe]([m5C])}$$$$ (last 3' nucleoside missing)”, the 3 h FOB score came to 1.33 score 0-7. Take “RNA1{[moe]([m5C])[sp].[moe]([m5C])p.[moe](A)p.[moe]([m5C])p.d(G)[sp].d([m5C])[sp].d(T)[sp].d(T)[sp].d(A)[sp].d([m5C])[sp].d(A)[sp].d(T)[sp].d([m5C])[sp].d(A)[sp].[moe](A)p.[moe](A)p.[moe]([m5C])p.[moe](A)[sp].[moe](T)}$$$$ (last 3' nucleoside missing)”: the 3 h FOB score came out at 0 score 0-7.

As for “RNA1{[moe](A)[sp].[moe]([m5C])p.[moe]([m5C])p.[moe]([m5C])p.[moe](A)p.d(G)[sp].d(T)[sp].d(T)[sp].d(T)[sp].d(T)[sp].d(T)[sp].d(T)[sp].d([m5C])[sp].d(A)[sp].d(T)[sp].[moe](T)p.[moe](G)p.[moe]([m5C])[sp].[moe](A)}$$$$ (last 3' nucleoside missing)”, the 3 h FOB score was determined as 0 score 0-7.

As for “RNA1{[moe](A)[sp].[moe](T)p.[moe](T)p.[moe]([m5C])p.d(T)[sp].d(A)[sp].d(T)[sp].d(T)[sp].d(T)[sp].d(T)[sp].d(A)[sp].d(T)[sp].d(A)[sp].d(A)[sp].[moe](A)p.[moe](T)p.[moe](G)p.[moe]([m5C])[sp].[moe]([m5C])}$$$$ (last 3' nucleoside missing)”, the 3 h FOB score was 2.67 score 0-7. Regarding “RNA1{[moe](G)[sp].[moe](A)p.[moe](A)p.[moe](A)p.[moe](G)p.d(T)[sp].d(A)[sp].d(G)[sp].d(T)[sp].d(A)[sp].d([m5C])[sp].d([m5C])[sp].d(A)[sp].d(T)[sp].d(T)[sp].[moe]([m5C])p.[moe]([m5C])p.[moe]([m5C])[sp].[moe](A)}$$$$ (last 3' nucleoside missing)”, the 3 h FOB score amounted to 1.67 score 0-7. With “RNA1{[moe]([m5C])[sp].[moe](A)p.[moe](T)p.[moe](T)p.[moe](T)p.d([m5C])[sp].d(T)[sp].d(A)[sp].d(T)[sp].d(A)[sp].d(A)[sp].d([m5C])[sp].d(T)[sp].d([m5C])[sp].d(A)[sp].[moe](G)p.[moe]([m5C])p.[moe](A)[sp].[moe](A)}$$$$ (last 3' nucleoside missing)” the figure was 0 score 0-7; with “RNA1{[moe]([m5C])[sp].[moe](A)p.[moe](T)p.[moe](G)p.d(T)[sp].d(A)[sp].d(A)[sp].d([m5C])[sp].d([m5C])[sp].d(T)[sp].d(T)[sp].d(T)[sp].d(A)[sp].d(T)[sp].[moe](A)p.[moe]([m5C])p.[moe](A)p.[moe](T)[sp].[moe](T)}$$$$ (last 3' nucleoside missing)”, 0 score 0-7. In turn, “RNA1{[moe](G)[sp].[moe]([m5C])p.[moe](A)p.[moe](T)p.d(G)[sp].d(T)[sp].d(T)[sp].d(T)[sp].d(A)[sp].d(T)[sp].d([m5C])[sp].d(T)[sp].d(T)[sp].d(A)[sp].[moe](G)p.[moe](T)p.[moe](T)p.[moe]([m5C])[sp].[moe](T)}$$$$ (last 3' nucleoside missing)” had a 3 h FOB score of 0 score 0-7.

With “RNA1{[moe]([m5C])[sp].[moe](A)p.[moe]([m5C])p.[moe](G)p.[moe](A)p.d([m5C])[sp].d(A)[sp].d(T)[sp].d(A)[sp].d(T)[sp].d(T)[sp].d(T)[sp].d(T)[sp].d(T)[sp].d([m5C])[sp].[moe](T)p.[moe](A)p.[moe]([m5C])[sp].[moe](A)}$$$$ (last 3' nucleoside missing)”, the 3 h FOB score is 0 score 0-7. Under “RNA1{[moe](A)[sp].[moe](G)p.[moe]([m5C])p.[moe](A)p.[moe](T)p.d(G)[sp].d(T)[sp].d(T)[sp].d(T)[sp].d(A)[sp].d(T)[sp].d([m5C])[sp].d(T)[sp].d(T)[sp].d(A)[sp].[moe](G)p.[moe](T)p.[moe](T)[sp].[moe]([m5C])}$$$$ (last 3' nucleoside missing)” stands 0 score 0-7; under “RNA1{[moe](A)[sp].[moe]([m5C])p.[moe](G)p.[moe](A)p.[moe]([m5C])p.d(A)[sp].d(T)[sp].d(A)[sp].d(T)[sp].d(T)[sp].d(T)[sp].d(T)[sp].d(T)[sp].d([m5C])[sp].d(T)[sp].[moe](A)p.[moe]([m5C])p.[moe](A)[sp].[moe]([m5C])}$$$$ (last 3' nucleoside missing)”, 0 score 0-7. “RNA1{[moe](G)[sp].[moe]([m5C])p.[moe](T)p.[moe](T)p.[moe](T)p.d([m5C])[sp].d([m5C])[sp].d([m5C])[sp].d(T)[sp].d(T)[sp].d(T)[sp].d(A)[sp].d(T)[sp].d(T)[sp].d([m5C])[sp].[moe](A)p.[moe](A)p.[moe](T)[sp].[moe](A)}$$$$ (last 3' nucleoside missing)”: the 3 h FOB score was determined as 0 score 0-7. For the substance “RNA1{[moe]([m5C])[sp].[moe](T)p.[moe]([m5C])p.[moe](T)p.[moe](T)p.[moe](T)p.d([m5C])[sp].d(T)[sp].d(T)[sp].d(A)[sp].d(T)[sp].d(T)[sp].d(T)[sp].d([m5C])[sp].d(T)[sp].d(G)[sp].[moe](T)p.[moe](T)[sp].[moe](T)}$$$$ (last 3' nucleoside missing)”, the 3 h FOB score was 1 score 0-7. In the case of “RNA1{[moe](T)[sp].[moe](T)p.[moe](G)p.[moe](G)p.[moe](G)p.d(T)[sp].d([m5C])[sp].d(T)[sp].d([m5C])[sp].d(T)[sp].d(T)[sp].d(A)[sp].d(G)[sp].d([m5C])[sp].d(T)[sp].[moe](T)p.[moe](T)p.[moe]([m5C])[sp].[moe](T)}$$$$ (last 3' nucleoside missing)”, the 3 h FOB score is 2.67 score 0-7. Regarding “RNA1{[moe](T)[sp].[moe]([m5C])p.[moe](A)p.[moe](G)p.d([m5C])[sp].d(A)[sp].d(T)[sp].d(G)[sp].d(T)[sp].d(T)[sp].d(T)[sp].d(A)[sp].d(T)[sp].d([m5C])[sp].[moe](T)p.[moe](T)p.[moe](A)p.[moe](G)[sp].[moe](T)}$$$$ (last 3' nucleoside missing)”, the 3 h FOB score turned out to be 2.33 score 0-7. “RNA1{[moe](A)[sp].[moe](T)p.[moe](T)p.[moe]([m5C])p.[moe](T)p.[moe](A)p.d(T)[sp].d(T)[sp].d(T)[sp].d(T)[sp].d(A)[sp].d(T)[sp].d(A)[sp].d(A)[sp].d(A)[sp].d(T)[sp].[moe](G)p.[moe]([m5C])[sp].[moe]([m5C])}$$$$ (last 3' nucleoside missing)” returned a 3 h FOB score of 2 score 0-7. In the case of “RNA1{[moe](A)[sp].[moe]([m5C])p.[moe](G)p.[moe](A)p.d([m5C])[sp].d(A)[sp].d(T)[sp].d(A)[sp].d(T)[sp].d(T)[sp].d(T)[sp].d(T)[sp].d(T)[sp].d([m5C])[sp].[moe](T)p.[moe](A)p.[moe]([m5C])p.[moe](A)[sp].[moe]([m5C])}$$$$ (last 3' nucleoside missing)”, the 3 h FOB score came out at 0 score 0-7. Take “RNA1{[moe](G)[sp].[moe]([m5C])p.[moe](A)p.[moe](T)[sp].d(G)[sp].d(T)[sp].d(A)[sp].d(A)[sp].d([m5C])[sp].d([m5C])[sp].d(T)[sp].d(T)[sp].[moe](T)p.[moe](A)p.[moe](T)p.[moe](A)[sp].[moe]([m5C])}$$$$ (last 3' nucleoside missing)”: the 3 h FOB score worked out at 0 score 0-7.
